Test results published in US7737250B2, “Peptides for treating axonal damage, inhibition of neurotransmitter release and pain transmission, and blocking calcium influx in neurons” (Mount Sinai School of Medicine of New York University, priority 2003, dated 2010).
Entries after “also recorded” stand apart in the source; their conditions may differ.

Experiments:
[1] = system: secretion of Substance P from DRG neurons; experiment: Substance P secretion, single-cell immunoblot assay; assay type: cell-based, chick; details: baclofen in addition to AP-YF peptide
Experimental: Secretion Assay: Secretion of substance P was analyzed using the single-cell immunoblot method adapted from Huang and Neher (Huang, L. Y., Neher, E. (1996) Neuron. 17, 135-45.). Briefly, polyvinylidene difluoride transfer membranes (Immobilon P brand from Millipore) were cut to […] and placed in a 6-well plate. Membranes were pre-wetted with methanol for 20 s, rinsed with distilled water and allowed to equilibrate in test solution for >1 hr. In parallel, DRG cells plated were incubated with media containing AP-YF or AP-Scr (1.4 μg/ml) for 1 hour. This media was removed, and replaced with 70 μl of test solution. The membranes were then placed on top of the cells, and allowed to incubate at 37° C. in a humidified CO2 incubator for 30 min. The membranes were then carefully removed from the cells and allowed to dry completely and fixed with powdered paraformaldehyde at 80° C. for 1 hr. Fixed membranes were rinsed in PBS (1 mM KH2PO4, 10 mM Na2HPO4, 137 mM NaCl, 2.7 mM KCl) containing 1% Triton X-100 (PBS-T) to remove excess paraformaldehyde, and blocked with PBS-T containing 3% fetal bovine serum (FBS) for 30 min at room temperature. The membranes were incubated with anti-substance P antibody (Santa Cruz) at 1:200 dilution in PBS-T with 1% FBS overnight in 37° C. incubator. The next day the membranes were developed with a peroxidase/diamninobenzidine (DAB) reaction using the ABC staining kit from Santa Cruz Biotechnology. Images were taken using a CCD camera, and analyzed using Photoshop and NIH image software. Data were plotted by assigning an upper and lower limit of gray values and plotting % of cells at a range within those limits. By plotting graphs as % of cells in a dynamic range, multiple experimental runs were pooled.

Cav2.2 channels = experiment: Calcium channel distribution by confocal indirect immunofluorescence in DRG neurons; assay type: cell-based, chicken; details: DRG neurons; application of the transmitter
Experimental: Antibodies: Primary antibody: rabbit anti-pan α1 binds Ca channel (1:200 dilution, [1.5 μg/ml) [Alomone Labs; Jerusalem, Israel]. Secondary antibodies: (1:200 dilution, 10 μg/ml): tetramenthylrhodamine conjugated goat anti-rabbit IgG (H+L) [Molecular Probes; Eugene, OR]
Dorsal root ganglia were dissected from 11 to 12 day old embryos, incubated for 30 min in saline containing nominal Ca 2^+ and Mg 2^+, and 0.05% collagenase (type A, Boehringer Mannheim). Ganglia were dissociated mechanically into single cells by trituration in culture medium containing Dulbecco's modified Eagle's medium supplemented with 10% horse serum, 5% chicken embryo extract, penicillin, streptomycin, glutamine, and nerve growth factor. Cells were plated at a density of ˜50,000 cells/collagen-coated 35 mm tissue culture dish and studied between 1 and 3 days in vitro.
Immunohistochemistry: Cultures grown on poly-L-lysine cover glass slips were exposed to saline or 100 mM NE (norepinephrine), fixed and permeabilized in methanol at −20° C. for 15-minutes or 20 second (for residual experiment) followed by 3×5-min washes in PHEM Buffer [60 mM PIPES, 25 mM HEPES, 10 mM EGTA, 2 mM MgCl2, pH 6.9]. Cells were alternatively fixed with 4% paraformaldehyde in PHEM buffer, pH 6.9 for 20-min, washed 3×3-min with PHEM buffer and permeabilization with 0.1% Triton X-100/PHEM buffer for 3-min. Blocking was performed using 5% BSA in PHEM Buffer for 1-h at 4 C. Following overnight incubation with primary antibody in 1% BSA and 1% normal goat sera in PHEM Buffer at 4 C. After washes with PHEM Buffer, cover slips were incubated with fluorophore-conjugated secondary antibodies in 1% BSA PHEM Buffer for 1.5 hours at room temperature in the dark. […]
Images of fixed cells were obtained with a pinhole setting of 0.95 using a UV 100× 1.4NA oil Leica objective lens and an optical zoom between 1.4 and 2× at slow acquisition speed with 4× frame averaging accumulation. The number of sections was calculated by the Leica TCS software based on acquisition of sections at 240 nm intervals in the Z-plane. […]

[2] = system: cell-surface myc-L1-CAM on ND-7 cells; experiment: L1-CAM diffusion behavior assay: movement of 9E10-coated beads bound to myc-L1-CAM (video microscopy, laser tweezers); assay type: cell-based, rat; details: ND-7 cells expressing wild-type myc-L1-CAM; cytochalasin D 2 μM, nocadazole 1 μM, NGF 100 ng/mL 1 hour
Source text: Video microscopy, laser tweezers, and data analysis: The 9E10-coated latex beads were then placed and held with an optical gradient laser trap on the surface of transfected cells at a distance of between 0.5 and 1 μm from the leading edge for 2 seconds. The laser trap consisted of a Titanium Sapphire (Coherent; model 890) solid state laser pumped by a 5 W frequency-doubled Neodymnium Vanadate laser (Verdi; Coherent) and tuned to 800 nm. This wavelength was previously determined to generate the fewest heating artifacts in live cells (Svoboda and Block. Biomol Struct 1994;23:-247-285 and Choquet et al. Cell 1997;88:39-48). Laser power at the output of the Titanium Sapphire laser was 40 mW, and prepared beads were placed and held on the cell surface for less than 3 sec to further reduce the possibility of heating artifacts. Laser light was introduced through the television port of the Axiovert microscope.
Video images of bead movement were collected using a newvicon camera (Dage MTI; VE-1000N) and background subtraction and contrast enhancement were carried using a Hamamatsu Argus 20 image processor. Raw data were recorded to sVHS video tape for subsequent analysis. Video recordings were subsequently digitized onto an Intel processor-based computer running the Isee imaging software (Isee Imaging) running under Red Hat Linux 7.1. Quantification of bead movement was carried out in Isee. Diffusional analysis was carried out using a custom spreadsheet in Excel (Microsoft). This spreadsheet carries out 4 operations: first, it scales the data from pixel measurements to nm using the appropriate scale factor (determined by the magnification used to observe bead movement); second, it subtracts the first point from all of the data, to set the origin at 0,0 (x,y coordinates); third, it rotates (in two dimensional space) the data around the origin so that the orientation of the cell is the same from trial to trial (here, the data was set so that the cells all face to the left); and fourth, the spreadsheet calculates the mean square displacement (MSD) data which are used to calculate diffusion coefficients and bead velocity. Individual traces were scored blind for classes of behavior. Statistical analysis of percentages of trials was carried out using chi-squared analysis or a Fisher's exact probability test.
MSD values were calculated as previously described (see Qian et al, 1991; Biophysical Journal 60 p910). For these calculations, the squared displacement (a^2+b^2; where a=xn+t−xn, b=a=yn+t−yn for any two points separated by time t) of the bead was calculated between two points in the data set. The mean of the squared displacements was calculated for each time interval t=1 to m, where m is the time interval that equals 10% of the length of the data set. The mean displacement was plotted with respect to time giving a curve with a linear or quadratic shape, depending on the behavior of the bead. Diffusion rates and velocity were calculated by fitting the curve with the equation MSD=4Dt+v^2t^2, where D is the diffusion coefficient, v is the velocity and t is time. D and v were calculated for each bead independently and presented as averages or as individual values, as described in each case.
Cell culture and transfection: ND-7 cells (rat neuroblastoma/DRG hybrid cells) were plated and transfected with pMyc-L1-CAM, pMyc-L1-CAM-YF, pMyc-L1-CAM-YH, or pMyc-L1-CAM-STOP expression constructs as described in Example 3, supra.
In some instances, ND-7 cells transfected with pMyc-L1-CAM were treated with the cytoskeletal inhibitor cytochalasin D (2 μM; Sigma) or nocadazole (1 μM; Sigma). For these experiments treatment with DMSO (0.01%) vehicle alone served as the negative control.
In some instances, ND-7 cells transfected with pMyc-L1-CAM were treated with neural growth factor (NGF) to stimulate phosphorylation of tyrosine 1229 (Y1229) of the L1-CAM cytoplasmic domain, and thereby inhibit ankyrin binding. […]

[3] = system: cell-surface myc-L1-CAM on ND-7 cells; experiment: Cytoskeleton attachment assay: resistance of 9E10 bead-myc-L1-CAM complexes to lateral displacement by laser trap; assay type: cell-based, rat; details: 2 μM cytochalasin D; ND-7 cells expressing myc-L1-CAM
Experimental: Cell culture and transfection: ND-7 cells (rat neuroblastoma/DRG hybrid cells) were cultured as described in Example 2. 24 hours prior to transfection, cultured cells were plated on coverslips coated with poly-D-lysine and laminin sealed to the bottom of 35 mm culture dishes (Mattek Corp.). Plated cells were transfected with the pL1-CAM or pMyc-L1-CAM expression constructs using Lipofectamine plus (Invitrogen) according to manufacturer's instructions. Transfected cells were cultured for 24-36 hours, and then used for live microscopy. For laser trap and video microscopy, the medium was replaced with phenol red-free serum-free L15 medium (air buffered) with 20 mM HEPES, 0.1% BSA, 0.5% ovalbumin. Cells transfected with the bicistronic expression constructs express a single mRNA encoding both the myc-L1-CAM proteins and EGFP, such that transfected cells were identified by EGFP fluorescence. […]
Video microscopy, laser tweezers, and data analysis: The 9E10-coated latex beads were then placed and held with an optical gradient laser trap on the surface of transfected cells at a distance of between 0.5 and 1 μm from the leading edge for 2 seconds. […] This wavelength was previously determined to generate the fewest heating artifacts in live cells (Svoboda and Block. Biomol Struct 1994;23:-247-285 and Choquet et al. Cell 1997;88:39-48). […]

[4] = biological target: T1, L1-CAM-ankyrin interactions (Homo sapiens, UniProt Q01484); experiment: Ankyrin recruitment assay: ankyrinB co-localization with L1-CAM at the membrane of transfected 293 cells; assay type: cell-based; details: 50 ng/mL EGF or 100 ng/mL NGF for 1 hour
T1 construct: expressed in transfected cells; host or cells: human kidney 293 cells
T1 sequence (Q01484 whole entry): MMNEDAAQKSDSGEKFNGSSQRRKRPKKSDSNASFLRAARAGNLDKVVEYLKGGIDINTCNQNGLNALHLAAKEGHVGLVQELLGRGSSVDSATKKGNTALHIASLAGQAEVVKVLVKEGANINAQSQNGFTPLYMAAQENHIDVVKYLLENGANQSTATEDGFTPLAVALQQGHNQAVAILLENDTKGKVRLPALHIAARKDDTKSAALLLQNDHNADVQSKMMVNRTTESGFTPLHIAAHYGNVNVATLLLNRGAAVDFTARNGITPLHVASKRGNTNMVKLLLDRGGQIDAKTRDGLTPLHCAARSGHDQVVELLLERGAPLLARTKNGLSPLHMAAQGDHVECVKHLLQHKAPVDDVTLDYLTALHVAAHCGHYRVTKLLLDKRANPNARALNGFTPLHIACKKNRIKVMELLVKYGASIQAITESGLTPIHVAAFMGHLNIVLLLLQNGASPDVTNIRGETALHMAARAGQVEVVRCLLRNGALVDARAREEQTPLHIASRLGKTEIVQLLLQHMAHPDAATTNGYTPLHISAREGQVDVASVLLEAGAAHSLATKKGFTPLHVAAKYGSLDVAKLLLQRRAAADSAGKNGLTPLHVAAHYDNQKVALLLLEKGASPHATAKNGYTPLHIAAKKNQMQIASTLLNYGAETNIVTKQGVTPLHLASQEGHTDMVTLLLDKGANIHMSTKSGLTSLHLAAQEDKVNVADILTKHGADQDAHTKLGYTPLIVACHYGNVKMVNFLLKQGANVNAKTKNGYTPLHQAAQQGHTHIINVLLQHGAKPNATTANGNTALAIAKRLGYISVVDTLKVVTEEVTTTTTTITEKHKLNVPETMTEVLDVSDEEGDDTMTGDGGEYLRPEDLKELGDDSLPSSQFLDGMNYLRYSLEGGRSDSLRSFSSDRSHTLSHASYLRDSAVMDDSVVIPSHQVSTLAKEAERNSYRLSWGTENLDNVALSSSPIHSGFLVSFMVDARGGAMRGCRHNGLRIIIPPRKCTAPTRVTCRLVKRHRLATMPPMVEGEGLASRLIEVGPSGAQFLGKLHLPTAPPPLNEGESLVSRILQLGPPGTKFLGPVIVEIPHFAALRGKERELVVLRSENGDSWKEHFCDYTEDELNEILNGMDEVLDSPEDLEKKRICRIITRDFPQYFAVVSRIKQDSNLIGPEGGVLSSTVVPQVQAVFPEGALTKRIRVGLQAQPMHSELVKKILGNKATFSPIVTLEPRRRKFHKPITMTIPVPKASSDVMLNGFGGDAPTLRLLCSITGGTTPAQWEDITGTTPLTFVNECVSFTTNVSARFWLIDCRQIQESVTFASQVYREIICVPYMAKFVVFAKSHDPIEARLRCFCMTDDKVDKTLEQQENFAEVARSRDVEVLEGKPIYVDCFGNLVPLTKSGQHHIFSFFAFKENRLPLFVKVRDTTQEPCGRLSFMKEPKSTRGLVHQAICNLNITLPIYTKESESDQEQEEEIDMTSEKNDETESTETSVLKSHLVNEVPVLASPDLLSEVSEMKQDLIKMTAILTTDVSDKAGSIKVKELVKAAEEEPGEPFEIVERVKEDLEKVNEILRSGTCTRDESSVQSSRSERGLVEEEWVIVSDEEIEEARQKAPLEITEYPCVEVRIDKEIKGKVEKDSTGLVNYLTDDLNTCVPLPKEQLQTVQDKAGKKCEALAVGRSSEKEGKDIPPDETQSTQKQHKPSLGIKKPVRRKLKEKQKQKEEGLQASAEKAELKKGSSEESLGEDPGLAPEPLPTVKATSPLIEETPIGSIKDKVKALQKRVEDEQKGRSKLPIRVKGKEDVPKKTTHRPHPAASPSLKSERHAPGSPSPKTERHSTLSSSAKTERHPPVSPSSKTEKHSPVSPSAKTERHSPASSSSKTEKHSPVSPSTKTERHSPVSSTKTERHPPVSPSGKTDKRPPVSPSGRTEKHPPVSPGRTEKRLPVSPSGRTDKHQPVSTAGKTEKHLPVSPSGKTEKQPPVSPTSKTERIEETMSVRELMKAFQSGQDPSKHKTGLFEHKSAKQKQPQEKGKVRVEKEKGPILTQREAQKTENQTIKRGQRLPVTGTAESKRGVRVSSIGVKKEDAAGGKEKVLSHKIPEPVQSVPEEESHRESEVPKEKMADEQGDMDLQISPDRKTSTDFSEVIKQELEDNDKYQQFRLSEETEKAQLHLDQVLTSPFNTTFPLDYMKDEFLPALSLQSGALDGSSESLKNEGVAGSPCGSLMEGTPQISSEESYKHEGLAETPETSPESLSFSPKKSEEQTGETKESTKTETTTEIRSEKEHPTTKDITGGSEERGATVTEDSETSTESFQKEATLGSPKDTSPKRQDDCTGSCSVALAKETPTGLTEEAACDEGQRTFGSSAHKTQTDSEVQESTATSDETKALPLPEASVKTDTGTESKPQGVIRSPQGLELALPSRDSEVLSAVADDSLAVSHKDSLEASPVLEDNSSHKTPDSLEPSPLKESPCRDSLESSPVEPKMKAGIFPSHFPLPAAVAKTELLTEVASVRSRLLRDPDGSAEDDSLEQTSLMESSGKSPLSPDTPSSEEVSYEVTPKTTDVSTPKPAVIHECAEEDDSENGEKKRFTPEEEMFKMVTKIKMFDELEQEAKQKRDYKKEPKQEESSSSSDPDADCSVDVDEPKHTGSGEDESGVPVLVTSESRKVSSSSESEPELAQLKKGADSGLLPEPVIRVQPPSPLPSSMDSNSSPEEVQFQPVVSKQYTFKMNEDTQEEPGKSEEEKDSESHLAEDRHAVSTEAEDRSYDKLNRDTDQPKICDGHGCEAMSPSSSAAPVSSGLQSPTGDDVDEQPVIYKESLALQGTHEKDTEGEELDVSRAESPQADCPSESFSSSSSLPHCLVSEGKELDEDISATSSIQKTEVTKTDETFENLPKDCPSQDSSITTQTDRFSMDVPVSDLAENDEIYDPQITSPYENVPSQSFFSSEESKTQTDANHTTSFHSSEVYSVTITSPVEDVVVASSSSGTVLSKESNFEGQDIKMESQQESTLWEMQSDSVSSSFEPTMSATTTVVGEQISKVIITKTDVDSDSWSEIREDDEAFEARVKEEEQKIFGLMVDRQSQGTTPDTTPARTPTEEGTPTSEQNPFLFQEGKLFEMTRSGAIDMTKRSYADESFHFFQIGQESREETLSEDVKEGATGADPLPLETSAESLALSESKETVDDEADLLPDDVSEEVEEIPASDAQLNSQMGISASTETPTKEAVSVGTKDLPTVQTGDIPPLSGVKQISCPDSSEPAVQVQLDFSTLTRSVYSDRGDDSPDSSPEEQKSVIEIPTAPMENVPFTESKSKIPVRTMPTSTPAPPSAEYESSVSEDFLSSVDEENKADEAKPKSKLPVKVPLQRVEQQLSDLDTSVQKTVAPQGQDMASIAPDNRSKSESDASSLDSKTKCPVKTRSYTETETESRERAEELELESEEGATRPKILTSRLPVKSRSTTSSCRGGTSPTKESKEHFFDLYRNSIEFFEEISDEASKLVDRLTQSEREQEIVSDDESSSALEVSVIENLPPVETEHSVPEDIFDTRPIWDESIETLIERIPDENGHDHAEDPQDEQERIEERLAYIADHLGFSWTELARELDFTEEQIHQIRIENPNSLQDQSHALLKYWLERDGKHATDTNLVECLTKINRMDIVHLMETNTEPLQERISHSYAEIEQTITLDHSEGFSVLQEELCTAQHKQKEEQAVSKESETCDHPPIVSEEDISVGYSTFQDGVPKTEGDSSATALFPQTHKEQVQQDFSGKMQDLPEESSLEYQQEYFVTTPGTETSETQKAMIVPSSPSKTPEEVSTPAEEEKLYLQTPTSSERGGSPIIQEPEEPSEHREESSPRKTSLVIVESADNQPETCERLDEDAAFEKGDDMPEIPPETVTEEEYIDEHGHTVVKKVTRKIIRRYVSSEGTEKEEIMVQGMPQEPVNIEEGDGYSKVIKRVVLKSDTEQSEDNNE
Experimental: Cell culture aid transfection: Human kidney 293 cells were cultured in DMEM medium (Gibco) supplemented with penicillin, streptomycin, L-glutamine, and 10% fetal bovine serum (Hyclone). The pMyc-L1-CAM or pL1-CAM-GFP expression constructs were transfected into cultured human kidney 293 cells using Lipofectamine plus (Invitrogen) according to manufacturer instructions. Cells were cultured for 24-48 hours and then used, or cultured continuously in the presence of 0.5 μg.mL G418 (Gibco) to select for stably transfected cells lines, to generate stable pooled lines of L1-CAM-expressing cells.
In some instances, transfected 293 cells were treated with neural growth factor (NGF) or epidermal growth factor (EGF) to stimulate phosphorylation of tyrosine 1229 (Y1229) of the L1-CAM cytoplasmic domain, and thereby inhibit ankyrin binding. In these cases, cells were treated with 50 ng/mL EGF (Gibco) or 100 ng/mL NGF (Gibco) for 1 hour prior to the assay. […]
Ankyrin and L1-CAM were detected by indirect immunofluorescence in double-labeled confocal sections through cell aggregates to permit the visualization of L1 and ankyrinB at the cell membrane. Expression of myc-L1-CAM was detected using a polyclonal anti-L1-CAM rabbit antibody. […] Ankyrin was detected using a monoclonal anti-ankyrinB mouse antibody (BD PharMingen). […]
Quantification of ankyrin immunolocalization: Confocal micrographs were then used to quantify the degree of ankyrin localization to the cell membrane of myc-L1-CAM expressing cells. Images were analyzed using ImageJ (NIH) under Macintosh OSX. The method for quantifying ankyrinB localization to the membrane uses densitometry of a line scan perpendicular to and crossing a cell-cell junction. […]
The densitometry intensity profile of the scanned line was used to determine a minimum ankyrinB signal for comparison to the value of the ankyrinB signal at the point where the maximum signal in the L1-CAM channel occurs. […] Minima were determined from the regions of the line overlapping the cytoplasm of either of the two cells. […]

Row | Compound | % of trials diffusing [2] [%] | % of trials retrograde [2] [%] | % of trials stationary [2] [%] | also measured
1 | NCC(CC(=O)O)c1ccc(Cl)cc1 (racemic) [Baclofen, 4-Amino-3-[4-chlorophenyl] butanoic acid] | – | – | – | DRG neurons secreting low levels of Substance P [1]: 75%
2 | NC[C@H](O)c1ccc(O)c(O)c1 (racemic) [norepinephrine, Norepinephrine] | – | – | – | punctate distribution of Cav2.2 channels in the membrane (Cav2.2 channels): rapidly (within 2s) reduced
3 | C=C1[C@@H](C)[C@H]2[C@H](Cc3ccccc3)NC(=O)[C@]23[C@H](OC(C)=O)/C=C/[C@@](C)(O)C(=O)[C@@H](C)C/C=C/[C@H]3[C@@H]1O [cytochalasin D] | 83.3 | 0 | 16.7 | bead rigidity on the cell surface (resistance to lateral displacement) [3]: entirely abolished
4 | COC(=O)Nc1nc2cc(C(=O)c3cccs3)ccc2[nH]1 [nocadazole] | 25 | 43.75 | 31.25 | –
5 | EGF: epidermal growth factor (Gibco) | – | – | – | ankyrin B colocalization with L1-CAM at the cell membrane [4]: significant reduction; also recorded: inhibited ankyrin membrane localization
